Patent publication US11674120B2, “Methods, kits, and compositions for enhancing cellular therapy” (University of Florida Research Foundation, Incorporated, priority 2016, dated 2023)

Tested on: lymph nodes and spleens
Experiment: In vivo migration of PKH+ DCs to lymph nodes and spleen (immunofluorescence)
Parameters: species or system C57BL/6 mice
Conditions: intradermal injection, 48 hours
Experimental: Dendritic cells were cultured and loaded with sarcosine as described in Example 1. DCs were also loaded with PKH cell membrane dye. […] After 48 hours, the lymph nodes and spleens were collected from the mice and immunofluorescence was performed to visualize PKH+ cells (which are the injected DCs) and B220+ cells (which are B cells). […] There was vastly more migration to the lymph nodes/spleen.

CNCC(=O)O [sarcosine, N-methylglycine]
Increase of migration to the lymph nodes and the spleen over controls, on visual inspection: more than two times, three times, four times more, five times and perhaps even more than ten-fold more than controls
